Test results reported in patent publication US20100168228A1, “NOVEL CHEMOTHERAPEUTIC AGENTS AGAINST INFLAMMATION AND CANCER” (RELIANCE LIFE SCIENCES PVT. LTD., priority 2006, published 2010).

Experiments:
[1] = tested on: NF-κB; assay: NF-κB activation assay, RAW 264.7; format: cell-based, mouse; settings: RAW 264.7, 100 ng/ml LPS 30 min
Procedure: FIG. 4: Effect of CAMVE on NF-κB activation in different cell lines. A. HeLa, MCF-7, U937, were incubated at 37° C. for 3 h with 15 μM dose of CAMVE and then stimulated with 0.1 nM TNF for 30 min. After these treatments, nuclear extracts were prepared and assayed for NF-κB using BD Transfactor ELISA method. B. RAW 264.7 cells pretreated with indicated doses of CAMVE were stimulated with 100 ng/ml LPS for 30 min and assayed for NF-κB activation.
Cell pellet was resuspended in lysis buffer (10 mM HEPES, pH 7.9, 1.5 mM MgCl2, 10 mM KCl, 1 mM PMSF, 1 mMDTT, 0.5% NP 40, 0.1 mM EGTA and 0.1 mM EDTA) and allowed to swell on ice for 15 min, followed by centrifugation at 3300×g for 20 min. The cell pellet was resuspended in a volume of lysis buffer equal to the cell pellet volume. The cell suspension was slowly drawn down into a syringe and ejected the content in a single stroke. Disrupted cells were incubated for 15 min on ice, and the disrupted cell suspension was centrifuged at 10,000×g for 20 min at 4° C. […]
The assay was performed by using wells coated with oligonucleotides having the consensus DNA binding sites for the specific transcription factors. […] Bound transcription factor was detected by a specific Primary Antibody. […] After addition of the substrate, the Absorbance was recorded at 655 nm.

[2] = tested on: p65; assay: Nuclear translocation of p65 by flow cytometry, Jurkat; format: cell-based, human
Procedure: FIG. 5: Effect of CAMVE on TNF or LPS induced nuclear translocation of p65. A. HeLa cells either untreated or pretreated with 15 μM CAMVE for 3 h at 37° C. were stimulated with 0.1 nM TNF and immunocytochemical analysis were performed as described in “Materials and Methods”. B. Jurkat (5×10^5 cells/ml) cells were pretreated with indicated concentrations of CAMVE for 3 h and then stimulated with 0.1 nM of TNF for 30 min or 100 ng/ml of SA-LPS (serum activated LPS) for 15 min. After these treatments, cells were washed twice with PBS and nuclei were isolated by incubating the cells with […] Pipes-Triton buffer for 30 min at 4° C. Nuclei were stained for p65 and analyzed using FACS. (i). Representative histogram overlay showing TNF or LPS stimulated (1), basal (2), CAMVE stimulated (3), p65 staining in the nucleus. (ii). Ordinates gives the Isotype-corrected MFI for various treatments.
The assay was performed as described previously (Blaecke, A., Yves, D., Herbault, N., Jeannin, P., Bonnefoy, J. V., Beck, A., Aubry, J. P. (2002) Cytometry 48, 71-79). Briefly after stimulation, cells were washed twice with PBS. Nucleus was prepared by incubating the cells with 200 ul Pipes-Triton buffer for 30 min at 4° C. […] After washing, the nuclei were incubated with secondary FITC conjugated goat anti-mouse antibody (Sigma) for additional 30 mins at 4° C. and analysed using FACS. […]

COC(=O)c1ccc(OC(=O)/C=C/c2ccc(O)c(O)c2)c(OC)c1 [compound 1, Methyl 4-{[(2E)-3-(3,4-dihydroxyphenyl)prop-2-enoyl]oxy}-3-methoxybenzoate]
LPS induced NF-κB activation [1]: inhibited NF-κB activation in murine cells
TNF or LPS mediated p65 translocation ([2]; Jurkat nuclei, pretreated 3 h, 0.1 nM TNF or 100 ng/ml SA-LPS): blocked with CAMVE pretreatments
basal nuclear p65 staining ([2]; Jurkat, CAMVE alone): not altered by incubation with CAMVE alone
